From patent US11667649B2, “Heteroaromatic macrocyclic ether chemotherapeutic agents” (Nuvalent, Inc., priority 2020, dated 2023) come the findings set out here.

This assay concerns TPM3-NTRK1-wt IC50 / primary target (e.g. CD74-ROS1-wt) IC50, Ba/F3 cells. Put plainly: Cell assay TRKA selectivity (TRKA potency divided by primary target potency). Particulars: for TPM3-NTRK1-wt/CD74-ROS1-G2032R: TRKA selectivity ratio: TPM3-NTRK1-wt IC50 / CD74-ROS1-G2032R IC50, Ba/F3 cells; for TPM3-NTRK1-wt/CD74-ROS1-wt: TRKA selectivity ratio: TPM3-NTRK1-wt IC50 / CD74-ROS1-wt IC50, Ba/F3 cells; for TPM3-NTRK1-wt/EML4-ALK-L1196M-G1202R: TRKA selectivity ratio: TPM3-NTRK1-wt IC50 / EML4-ALK-L1196M-G1202R IC50, Ba/F3 cells; for TPM3-NTRK1-wt/EML4-ALK-wt: TRKA selectivity ratio: TPM3-NTRK1-wt IC50 / EML4-ALK-wt IC50, Ba/F3 cells. In kind it is cell-based. In short, it runs like this: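 IL-3-independent Ba/F3 lines stably expressing TPM3-TRKA or the primary fusion (e.g. CD74-ROS1 wt) were exposed to 3-fold compound dilutions for 72 h. Viability was read by CellTiter-Glo luminescence, with IC50 from four-parameter logistic fit. Selectivity is TPM3-NTRK1 IC50 divided by primary-target IC50, binned A (>30-fold) to D (<1).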

For the compound `C[C@H]1Oc2cc(cnc2N)-c2c(C#N)nn(C)c2Cc2cccnc2-c2ccc(F)cc21` [Example 100, (20R)-23-amino-17-fluoro-5,20-dimethyl-21-oxa-4,5,12,24-tetraazapentacyclo[20.3.1.0^2,^6.0^8,^13.0^14,^19]hexacosa-1(25),2(6),3,8(13),9,11,14,16,18,22(26),23-undecaene-3-carbonitrile], the TPM3-NTRK1-wt/CD74-ROS1-G2032R entry is “A (bin A for very high selectivity, ratio>30-fold)”; the TPM3-NTRK1-wt/CD74-ROS1-wt result is given as “A (bin A for very high selectivity, ratio>30-fold)”; the TPM3-NTRK1-wt/EML4-ALK-L1196M-G1202R entry is reported as “A (bin A for very high selectivity, ratio>30-fold)”; the TPM3-NTRK1-wt/EML4-ALK-wt entry is “A (bin A for very high selectivity, ratio>30-fold)”.
Consider `Cn1nc(C#N)c2c1Cc1cccnc1-c1ccc(F)cc1COc1cc-2cnc1N` [Example 101, 23-amino-17-fluoro-5-methyl-21-oxa-4,5,12,24-tetraazapentacyclo[20.3.1.0^2,^6.0^8,^13.0^14,^19]hexacosa-1(25),2(6),3,8(13),9,11,14,16,18,22(26),23-undecaene-3-carbonitrile], for which the TPM3-NTRK1-wt/CD74-ROS1-G2032R entry is recorded as “A (bin A for very high selectivity, ratio>30-fold)”; the TPM3-NTRK1-wt/CD74-ROS1-wt entry is “A (bin A for very high selectivity, ratio>30-fold)”; the TPM3-NTRK1-wt/EML4-ALK-L1196M-G1202R result is reported as “A (bin A for very high selectivity, ratio>30-fold)”; the TPM3-NTRK1-wt/EML4-ALK-wt result is listed as “A (bin A for very high selectivity, ratio>30-fold)”.
Consider `CCn1ncc2c1-c1cnc(N)c(c1)O[C@H](C)c1cc(F)ccc1-n1nc(C(F)F)cc1C2` [Example 102, (19R)-10-(difluoromethyl)-3-ethyl-16-fluoro-19-methyl-20-oxa-3,4,11,12,23-pentaazapentacyclo[19.3.1.0^2,^6.0^8,^12.0^13,^18]pentacosa-1(24),2(6),4,8,10,13,15,17,21(25),22-decaen-22-amine], for which the TPM3-NTRK1-wt/CD74-ROS1-G2032R entry is on record as “A (bin A for very high selectivity, ratio>30-fold)”; the TPM3-NTRK1-wt/CD74-ROS1-wt result is recorded as “A (bin A for very high selectivity, ratio>30-fold)”; the TPM3-NTRK1-wt/EML4-ALK-L1196M-G1202R entry is given as “C (bin C for moderate selectivity, ratio≥1)”; the TPM3-NTRK1-wt/EML4-ALK-wt entry was “B (bin B for high selectivity, ratio>10-fold)”.
For the compound `C[C@H]1Oc2cc(cnc2N)-c2c(C#N)nn(C)c2Cc2cc(Cl)nn2-c2ccc(F)cc21` [Example 103, (19R)-22-amino-10-chloro-16-fluoro-5,19-dimethyl-20-oxa-4,5,11,12,23-pentaazapentacyclo[19.3.1.0^2,^6.0^8,^12.0^13,^18]pentacosa-1(24),2(6),3,8,10,13,15,17,21(25),22-decaene-3-carbonitrile], the TPM3-NTRK1-wt/CD74-ROS1-G2032R result was “A (bin A for very high selectivity, ratio>30-fold)”; the TPM3-NTRK1-wt/CD74-ROS1-wt entry is “A (bin A for very high selectivity, ratio>30-fold)”; the TPM3-NTRK1-wt/EML4-ALK-L1196M-G1202R entry is given as “B (bin B for high selectivity, ratio>10-fold)”; the TPM3-NTRK1-wt/EML4-ALK-wt entry was “A (bin A for very high selectivity, ratio>30-fold)”.
Take `C[C@H]1Oc2cc(cnc2N)-c2c(C#N)nn(C)c2Cc2cc(C(F)(F)F)nn2-c2ccc(F)cc21` [Example 104, (19R)-22-amino-16-fluoro-5,19-dimethyl-10-(trifluoromethyl)-20-oxa-4,5,11,12,23-pentaazapentacyclo[19.3.1.0^2,^6.0^8,^12.0^13,^18]pentacosa-1(24),2(6),3,8,10,13,15,17,21(25),22-decaene-3-carbonitrile]: the TPM3-NTRK1-wt/CD74-ROS1-G2032R entry is “A (bin A for very high selectivity, ratio>30-fold)”; the TPM3-NTRK1-wt/CD74-ROS1-wt result is “A (bin A for very high selectivity, ratio>30-fold)”; the TPM3-NTRK1-wt/EML4-ALK-L1196M-G1202R entry is “C (bin C for moderate selectivity, ratio≥1)”; the TPM3-NTRK1-wt/EML4-ALK-wt entry is given as “A (bin A for very high selectivity, ratio>30-fold)”.
As for `C[C@H]1Oc2cc(cnc2N)-c2c(C#N)nn(C)c2Cc2cc(F)cnc2-c2ccc(F)cc21` [Example 105, (20R)-23-amino-10,17-difluoro-5,20-dimethyl-21-oxa-4,5,12,24-tetraazapentacyclo[20.3.1.0^2,^6.0^8,^13.0^14,^19]hexacosa-1(25),2(6),3,8(13),9,11,14,16,18,22(26),23-undecaene-3-carbonitrile], the TPM3-NTRK1-wt/CD74-ROS1-G2032R entry is “A (bin A for very high selectivity, ratio>30-fold)”; the TPM3-NTRK1-wt/CD74-ROS1-wt result was “A (bin A for very high selectivity, ratio>30-fold)”; the TPM3-NTRK1-wt/EML4-ALK-L1196M-G1202R entry was “B (bin B for high selectivity, ratio>10-fold)”; the TPM3-NTRK1-wt/EML4-ALK-wt result is reported as “A (bin A for very high selectivity, ratio>30-fold)”.
In the case of `C[C@H]1Oc2cc(cnc2N)-c2c(nnn2CC2CC2)Cc2cc(F)cnc2-c2ccc(F)cc21` [Example 106, (20R)-3-(cyclopropylmethyl)-10,17-difluoro-20-methyl-21-oxa-3,4,5,12,24-pentaazapentacyclo[20.3.1.0^2,^6.0^8,^13.0^14,^19]hexacosa-1(25),2(6),4,8(13),9,11,14,16,18,22(26),23-undecaen-23-amine], the TPM3-NTRK1-wt/CD74-ROS1-G2032R result was “A (bin A for very high selectivity, ratio>30-fold)”; the TPM3-NTRK1-wt/CD74-ROS1-wt entry is “A (bin A for very high selectivity, ratio>30-fold)”; the TPM3-NTRK1-wt/EML4-ALK-L1196M-G1202R entry is listed as “B (bin B for high selectivity, ratio>10-fold)”; the TPM3-NTRK1-wt/EML4-ALK-wt entry is “A (bin A for very high selectivity, ratio>30-fold)”.
Consider `CCn1nnc2c1-c1cnc(N)c(c1)O[C@H](C)c1cc(F)ccc1-n1nc(C(F)(F)F)cc1C2` [Example 107, (19R)-3-ethyl-16-fluoro-19-methyl-10-(trifluoromethyl)-20-oxa-3,4,5,11,12,23-hexaazapentacyclo[19.3.1.0^2,^6.0^8,^12.0^13,^18]pentacosa-1(24),2(6),4,8,10,13,15,17,21(25),22-decaen-22-amine], for which the TPM3-NTRK1-wt/CD74-ROS1-G2032R result is “A (bin A for very high selectivity, ratio>30-fold)”; the TPM3-NTRK1-wt/CD74-ROS1-wt entry is listed as “A (bin A for very high selectivity, ratio>30-fold)”; the TPM3-NTRK1-wt/EML4-ALK-L1196M-G1202R result is “C (bin C for moderate selectivity, ratio≥1)”; the TPM3-NTRK1-wt/EML4-ALK-wt entry is “C (bin C for moderate selectivity, ratio≥1)”.
Take `C[C@H]1Oc2cc(cnc2N)-c2c(nnn2CC2CC2)Cc2cc(Cl)nn2-c2ccc(F)cc21` [Example 108, (19R)-10-chloro-3-(cyclopropylmethyl)-16-fluoro-19-methyl-20-oxa-3,4,5,11,12,23-hexaazapentacyclo[19.3.1.0^2,^6.0^8,^12.0^13,^18]pentacosa-1(24),2(6),4,8,10,13,15,17,21(25),22-decaen-22-amine]: the TPM3-NTRK1-wt/CD74-ROS1-G2032R entry was “A (bin A for very high selectivity, ratio>30-fold)”; the TPM3-NTRK1-wt/CD74-ROS1-wt entry is given as “A (bin A for very high selectivity, ratio>30-fold)”; the TPM3-NTRK1-wt/EML4-ALK-L1196M-G1202R result was “B (bin B for high selectivity, ratio>10-fold)”; the TPM3-NTRK1-wt/EML4-ALK-wt entry is reported as “A (bin A for very high selectivity, ratio>30-fold)”.
For the compound `Cc1cc2n(n1)-c1ccc(F)cc1[C@@H](C)Oc1cc(cnc1N)-c1c(cnn1CC1CC1)C2` [Example 109, (19R)-3-(cyclopropylmethyl)-16-fluoro-10,19-dimethyl-20-oxa-3,4,11,12,23-pentaazapentacyclo[19.3.1.0^2,^6.0^8,^12.0^13,^18]pentacosa-1(24),2(6),4,8,10,13,15,17,21(25),22-decaen-22-amine], the TPM3-NTRK1-wt/CD74-ROS1-G2032R result is given as “A (bin A for very high selectivity, ratio>30-fold)”; the TPM3-NTRK1-wt/CD74-ROS1-wt entry is on record as “A (bin A for very high selectivity, ratio>30-fold)”; the TPM3-NTRK1-wt/EML4-ALK-L1196M-G1202R result is given as “A (bin A for very high selectivity, ratio>30-fold)”; the TPM3-NTRK1-wt/EML4-ALK-wt result is on record as “A (bin A for very high selectivity, ratio>30-fold)”.
As to `Nc1ncc2cc1OCc1cc(F)ccc1-n1nc(Cl)cc1Cc1nnn(CC3CC3)c1-2` [Example 110, 10-chloro-3-(cyclopropylmethyl)-16-fluoro-20-oxa-3,4,5,11,12,23-hexaazapentacyclo[19.3.1.0^2,^6.0^8,^12.0^13,^18]pentacosa-1(24),2(6),4,8,10,13,15,17,21(25),22-decaen-22-amine], the TPM3-NTRK1-wt/CD74-ROS1-G2032R entry is “A (bin A for very high selectivity, ratio>30-fold)”; the TPM3-NTRK1-wt/CD74-ROS1-wt entry is “A (bin A for very high selectivity, ratio>30-fold)”; the TPM3-NTRK1-wt/EML4-ALK-L1196M-G1202R result is recorded as “A (bin A for very high selectivity, ratio>30-fold)”; the TPM3-NTRK1-wt/EML4-ALK-wt entry is “A (bin A for very high selectivity, ratio>30-fold)”.
As to `C[C@H]1Oc2cc(cnc2N)-c2c(nn(C)c2C#N)Cc2cn(C)nc2-c2ccc(F)cc21` [Example 111, (19R)-22-amino-16-fluoro-4,10,19-trimethyl-20-oxa-4,5,10,11,23-pentaazapentacyclo[19.3.1.0^2,^6.0^8,^12.0^13,^18]pentacosa-1(24),2,5,8,11,13,15,17,21(25),22-decaene-3-carbonitrile], the TPM3-NTRK1-wt/CD74-ROS1-G2032R result is “B (bin B for high selectivity, ratio>10-fold)”; the TPM3-NTRK1-wt/CD74-ROS1-wt result was “A (bin A for very high selectivity, ratio>30-fold)”; the TPM3-NTRK1-wt/EML4-ALK-L1196M-G1202R entry is reported as “C (bin C for moderate selectivity, ratio≥1)”; the TPM3-NTRK1-wt/EML4-ALK-wt entry is reported as “A (bin A for very high selectivity, ratio>30-fold)”.
